Test results published in ChEMBL document CHEMBL1287680, “C-11 diamino cryptolepine derivatives NSC748392, NSC748393, and NSC748394: anticancer profile and G-quadruplex stabilization” (Bioorg Med Chem Lett, 2010).

Assays:
Nucleic Acid [1] = conditions: Homo sapiens
Description: Binding affinity to human G-quadruplex DNA assessed as change in melting temperature by FRET-melting assay

Nucleic Acid [2] = conditions: Homo sapiens; remark: listed apart in the source
Description: Binding affinity to human duplex DNA assessed as change in melting temperature by FRET-melting assay

OVCAR-8 = experiment: cells; conditions: Homo sapiens
Description: Anticancer activity against human OVCAR8 cells

OVCAR-4 = experiment: cells; conditions: Homo sapiens
Description: Anticancer activity against human OVCAR4 cells

OVCAR-3 = experiment: cells; conditions: Homo sapiens
Description: Anticancer activity against human OVCAR-3 cells

IGROV-1 = experiment: cells; conditions: Homo sapiens
Description: Anticancer activity against human IGROV1 cells

SK-MEL-5 = experiment: cells; conditions: Homo sapiens
Description: Anticancer activity against human SK-MEL-5 cells

M14 = experiment: cells; conditions: Homo sapiens
Description: Anticancer activity against human M14 cells

Malme-3M = experiment: cells; conditions: Homo sapiens
Description: Anticancer activity against human MALME-3M cells

LOX IMVI = experiment: cells; conditions: Homo sapiens
Description: Anticancer activity against human LOXIMVI cells

SF-539 = experiment: cells; conditions: Homo sapiens
Description: Anticancer activity against human SF539 cells

SW-620 = experiment: cells; conditions: Homo sapiens
Description: Anticancer activity against human SW620 cells

KM12 = experiment: cells; conditions: Homo sapiens
Description: Anticancer activity against human KM12 cells

COLO 205 = experiment: cells; conditions: Homo sapiens
Description: Anticancer activity against human COLO205 cells

NCI-H522 = experiment: cells; conditions: Homo sapiens
Description: Anticancer activity against human NCI-H522 cells

NCI-H460 = experiment: cells; conditions: Homo sapiens
Description: Anticancer activity against human NCI-H460 cells

NCI-H322M = experiment: cells; conditions: Homo sapiens
Description: Anticancer activity against human NCI-H322M cells

NCI-H23 = experiment: cells; conditions: Homo sapiens
Description: Anticancer activity against human NCI-H23 cells

HOP-62 = experiment: cells; conditions: Homo sapiens
Description: Anticancer activity against human HOP62 cells

EKVX = experiment: cells; conditions: Homo sapiens
Description: Anticancer activity against human EKVX cells

SR = experiment: cells; conditions: Homo sapiens
Description: Anticancer activity against human SR cells

cells = conditions: Homo sapiens
Description: Anticancer activity against human RPMI8266 cells

K562 = experiment: cells; conditions: Homo sapiens
Description: Anticancer activity against human K562 cells

T47D = experiment: cells; conditions: Homo sapiens
Description: Anticancer activity against human T47D cells

MDA-MB-435 = experiment: cells; conditions: Homo sapiens
Description: Anticancer activity against human MDA-MB-435 cells

MCF7 = experiment: cells; conditions: Homo sapiens
Description: Anticancer activity against human MCF7 cells

DU-145 = experiment: cells; conditions: Homo sapiens
Description: Anticancer activity against human DU145 cells

PC-3 = experiment: cells; conditions: Homo sapiens
Description: Anticancer activity against human PC3 cells

UO-31 = experiment: cells; conditions: Homo sapiens
Description: Anticancer activity against human UO31 cells

SN12C = experiment: cells; conditions: Homo sapiens
Description: Anticancer activity against human SN12C cells

A498 = experiment: cells; conditions: Homo sapiens
Description: Anticancer activity against human A498 cells

Description for physchem: Dissociation constant, pKa of the compound by UV-visible spectroscopy

C[n+]1c2ccccc2c(NC2CCNCC2)c2[nH]c3ccccc3c21.[Cl-]
ΔTm (Nucleic Acid [1]): 19.9 °C | ΔTm (Nucleic Acid [2]): 15.1 °C | GI50 (OVCAR-8; OVCAR-8, read-out: pGI50 (converted)): 1.74 µM | CC50 (OVCAR-8; OVCAR-8, read-out: pLC50 (converted)): 45.7 µM | TGI (OVCAR-8; OVCAR-8, read-out: pTGI): 12.3 µM | GI50 (OVCAR-4; OVCAR-4, read-out: pGI50 (converted)): 0.316 µM | CC50 (OVCAR-4; OVCAR-4, read-out: pLC50 (converted)): 36.3 µM | TGI (OVCAR-4; OVCAR-4, read-out: pTGI): 3.8 µM | GI50 (OVCAR-3; OVCAR-3, read-out: pGI50 (converted)): 1.45 µM | CC50 (OVCAR-3; OVCAR-3, read-out: pLC50 (converted)): 95.5 µM | TGI (OVCAR-3; OVCAR-3, read-out: pTGI): 9.55 µM | GI50 (IGROV-1; IGROV-1, read-out: pGI50 (converted)): 0.363 µM | CC50 (IGROV-1; IGROV-1, read-out: pLC50 (converted)): > 100 µM | TGI (IGROV-1; IGROV-1, read-out: pTGI): 5.01 µM | GI50 (SK-MEL-5; SK-MEL-5, read-out: pGI50 (converted)): 0.302 µM | CC50 (SK-MEL-5; SK-MEL-5, read-out: pLC50 (converted)): 4.68 µM | TGI (SK-MEL-5; SK-MEL-5, read-out: pTGI): 1.32 µM | GI50 (M14; M14, read-out: pGI50 (converted)): 3.16 µM | CC50 (M14; M14, read-out: pLC50 (converted)): 43.7 µM | TGI (M14; M14, read-out: pTGI): 15.1 µM | GI50 (Malme-3M; read-out: pGI50 (converted)): 1.55 µM | CC50 (Malme-3M; read-out: pLC50 (converted)): 20 µM | TGI (Malme-3M; read-out: pTGI): 4.37 µM | GI50 (LOX IMVI; read-out: pGI50 (converted)): 1.7 µM | CC50 (LOX IMVI; read-out: pLC50 (converted)): 49 µM | TGI (LOX IMVI; read-out: pTGI): 5.25 µM | GI50 (SF-539; SF-539, read-out: pGI50 (converted)): 1.66 µM | CC50 (SF-539; SF-539, read-out: pLC50 (converted)): 28.8 µM | TGI (SF-539; SF-539, read-out: pTGI): 7.41 µM | GI50 (SW-620; SW-620, read-out: pGI50 (converted)): 1.45 µM | CC50 (SW-620; SW-620, read-out: pLC50 (converted)): > 100 µM | TGI (SW-620; SW-620, read-out: pTGI): 10.7 µM | GI50 (KM12; KM12, read-out: pGI50 (converted)): 0.708 µM | CC50 (KM12; KM12, read-out: pLC50 (converted)): > 100 µM | TGI (KM12; KM12, read-out: pTGI): 10 µM | GI50 (COLO 205; COLO 205, read-out: pGI50 (converted)): 0.339 µM | CC50 (COLO 205; COLO 205, read-out: pLC50 (converted)): 14.5 µM | TGI (COLO 205; COLO 205, read-out: pTGI): 2.4 µM | GI50 (NCI-H522; NCI-H522, read-out: pGI50 (converted)): 0.123 µM | CC50 (NCI-H522; NCI-H522, read-out: pLC50 (converted)): 3.31 µM | TGI (NCI-H522; NCI-H522, read-out: pTGI): 0.692 µM | GI50 (NCI-H460; NCI-H460, read-out: pGI50 (converted)): 0.245 µM | CC50 (NCI-H460; NCI-H460, read-out: pLC50 (converted)): 22.4 µM | TGI (NCI-H460; NCI-H460, read-out: pTGI): 1.62 µM | GI50 (NCI-H322M; read-out: pGI50 (converted)): 0.372 µM | CC50 (NCI-H322M; read-out: pLC50 (converted)): > 100 µM | TGI (NCI-H322M; read-out: pTGI): 12 µM | GI50 (NCI-H23; NCI-H23, read-out: pGI50 (converted)): 0.0589 µM | CC50 (NCI-H23; NCI-H23, read-out: pLC50 (converted)): 10.2 µM | TGI (NCI-H23; NCI-H23, read-out: pTGI): 0.646 µM | GI50 (HOP-62; HOP-62, read-out: pGI50 (converted)): 0.525 µM | CC50 (HOP-62; HOP-62, read-out: pLC50 (converted)): 30.9 µM | TGI (HOP-62; HOP-62, read-out: pTGI): 5.62 µM | GI50 (EKVX; read-out: pGI50 (converted)): 0.525 µM | CC50 (EKVX; read-out: pLC50 (converted)): > 100 µM | TGI (EKVX; read-out: pTGI): 8.32 µM | GI50 (SR; read-out: pGI50 (converted)): 1.7 µM | CC50 (SR; read-out: pLC50 (converted)): > 100 µM | TGI (SR; read-out: pTGI): > 100 µM | GI50 (cells; RPMI8266, read-out: pGI50 (converted)): 0.661 µM | CC50 (cells; RPMI8266, read-out: pLC50 (converted)): > 100 µM | TGI (cells; RPMI8266, read-out: pTGI): 3.89 µM | GI50 (K562; K562, read-out: pGI50 (converted)): 0.295 µM | CC50 (K562; K562, read-out: pLC50 (converted)): > 100 µM | GI50 (T47D; read-out: pGI50 (converted)): 0.234 µM | CC50 (T47D; read-out: pLC50 (converted)): > 100 µM | TGI (T47D; read-out: pTGI): 2.34 µM | GI50 (MDA-MB-435; MDA-MB-435, read-out: pGI50 (converted)): 2.95 µM | CC50 (MDA-MB-435; MDA-MB-435, read-out: pLC50 (converted)): 42.7 µM | TGI (MDA-MB-435; MDA-MB-435, read-out: pTGI): 10.5 µM | GI50 (MCF7; MCF7, read-out: pGI50 (converted)): 0.224 µM | CC50 (MCF7; MCF7, read-out: pLC50 (converted)): > 100 µM | TGI (MCF7; MCF7, read-out: pTGI): 2.14 µM | GI50 (DU-145; DU-145, read-out: pGI50 (converted)): 0.204 µM | CC50 (DU-145; DU-145, read-out: pLC50 (converted)): > 100 µM | TGI (DU-145; DU-145, read-out: pTGI): 10.2 µM | GI50 (PC-3; PC-3, read-out: pGI50 (converted)): 1.95 µM | CC50 (PC-3; PC-3, read-out: pLC50 (converted)): 97.7 µM | TGI (PC-3; PC-3, read-out: pTGI): 10.5 µM | GI50 (UO-31; UO-31, read-out: pGI50 (converted)): 13.2 µM | CC50 (UO-31; UO-31, read-out: pLC50 (converted)): > 100 µM | TGI (UO-31; UO-31, read-out: pTGI): 46.8 µM | GI50 (SN12C; read-out: pGI50 (converted)): 0.0295 µM | CC50 (SN12C; read-out: pLC50 (converted)): > 100 µM | TGI (SN12C; read-out: pTGI): 0.316 µM | GI50 (A498; A498, read-out: pGI50 (converted)): 1.62 µM | CC50 (A498; A498, read-out: pLC50 (converted)): 26.3 µM | TGI (A498; A498, read-out: pTGI): 5.13 µM | pKa (physchem): 11.8
